# According to PubChem BioAssay AID2060904 (Molecular Pharmacology Branch, DTP, NCI, 2025):
# Test system: 349418-098-R-PDC complex spheroid viability
# Experiment: Anticancer human tumor 349418-098-R-PDC patient-derived lung adenocarcinoma cell line growth inhibition [RAS]
# Details: for viability, T/C: stronger effect = lower value
# In short: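 Multi-cell-type spheroids: tumor cells plus HUVEC endothelial cells and mesenchymal stem cells. RAS-pathway inhibitors were combined with targeted agents, each dosed in half-log steps down from clinical Cmax, or from 10 microM when Cmax was unknown.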
# [1] = curve of first compound, second compound 0.000949 µM
# [2] = curve of first compound, second compound 0.003 µM
# [3] = curve of first compound, second compound 0.00949 µM
# [4] = curve of first compound, second compound 0.03 µM
# [5] = curve of first compound, second compound 0.0949 µM
# [6] = curve of first compound, second compound 0.3 µM
# [7] = second compound 0.000949 µM, first compound 0.0316 µM
# [8] = second compound 0.000949 µM, first compound 0.1 µM
# [9] = second compound 0.000949 µM, first compound 0.316 µM
# [10] = second compound 0.000949 µM, first compound 1 µM
# [11] = second compound 0.003 µM, first compound 0.0316 µM
# [12] = second compound 0.003 µM, first compound 0.1 µM
# [13] = second compound 0.003 µM, first compound 0.316 µM
# [14] = second compound 0.003 µM, first compound 1 µM
# [15] = second compound 0.00949 µM, first compound 0.0316 µM
# [16] = second compound 0.00949 µM, first compound 0.1 µM
# [17] = second compound 0.00949 µM, first compound 0.316 µM
# [18] = second compound 0.00949 µM, first compound 1 µM
# [19] = second compound 0.03 µM, first compound 0.0316 µM
# [20] = second compound 0.03 µM, first compound 0.1 µM
# [21] = second compound 0.03 µM, first compound 0.316 µM
# [22] = second compound 0.03 µM, first compound 1 µM
# [23] = second compound 0.0949 µM, first compound 0.0316 µM
# [24] = second compound 0.0949 µM, first compound 0.1 µM
# [25] = second compound 0.0949 µM, first compound 0.316 µM
# [26] = second compound 0.0949 µM, first compound 1 µM
# [27] = second compound 0.3 µM, first compound 0.0316 µM
# [28] = second compound 0.3 µM, first compound 0.1 µM
# [29] = second compound 0.3 µM, first compound 0.316 µM
# [30] = second compound 0.3 µM, first compound 1 µM
# 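Also: spheroids exposed to compound for seven days before viability readout.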
smiles,measurement,setting,value
CC(Nc1ccc2c(c1)OCCn1cc(N3C(=O)OCC3C(F)F)nc1-2)C(N)=O (stereo unspecified) + CCn1c(-c2cccnc2C(C)OC)c2c3cc(ccc31)N1CCOC(CC(NC(=O)C(C(C)C)N(C)C(=O)C3(F)CCN(C(=O)C#CC(C)(C)N(C)C)CC3)C(=O)N3CCCC(N3)C(=O)OCC(C)(C)C2)C1,IC50,[1],36.4 nM
same,IC50,[2],99.4 nM
same,IC50,[3],72.4 nM
same,IC50,[4],278 nM
same,IC50,[5],< 31.6 nM
same,IC50,[6],39.9 nM
same,"viability, T/C",[7],72.9%
same,"viability, T/C",[8],36.7%
same,"viability, T/C",[9],17.7%
same,"viability, T/C",[10],17.2%
same,"viability, T/C","second compound 0.000949 µM, first compound 3.16 µM",101%
same,"viability, T/C","second compound 0.000949 µM, first compound 10 µM",16.2%
same,"viability, T/C",[11],80.3%
same,"viability, T/C",[12],56.2%
same,"viability, T/C",[13],30.2%
same,"viability, T/C",[14],19.6%
same,"viability, T/C","second compound 0.003 µM, first compound 3.16 µM",99.2%
same,"viability, T/C","second compound 0.003 µM, first compound 10 µM",12.9%
same,"viability, T/C",[15],73.4%
same,"viability, T/C",[16],43.6%
same,"viability, T/C",[17],25.2%
same,"viability, T/C",[18],14.9%
same,"viability, T/C","second compound 0.00949 µM, first compound 3.16 µM",94.2%
same,"viability, T/C","second compound 0.00949 µM, first compound 10 µM",11.8%
same,"viability, T/C",[19],67.6%
same,"viability, T/C",[20],43%
same,"viability, T/C",[21],32.2%
same,"viability, T/C",[22],24.3%
same,"viability, T/C","second compound 0.03 µM, first compound 3.16 µM",112%
same,"viability, T/C","second compound 0.03 µM, first compound 10 µM",14.7%
same,"viability, T/C",[23],55.9%
same,"viability, T/C",[24],44.5%
same,"viability, T/C",[25],25.9%
same,"viability, T/C",[26],17.9%
same,"viability, T/C","second compound 0.0949 µM, first compound 3.16 µM",98.1%
same,"viability, T/C","second compound 0.0949 µM, first compound 10 µM",10.4%
same,"viability, T/C",[27],53.7%
same,"viability, T/C",[28],37.8%
same,"viability, T/C",[29],21.5%
same,"viability, T/C",[30],19%
same,"viability, T/C","second compound 0.3 µM, first compound 3.16 µM",65%
same,"viability, T/C","second compound 0.3 µM, first compound 10 µM",14.5%
C[C@@H](NC(=O)c1ncnc(N)c1Cl)c1ncc(C(=O)Nc2cc(C(F)(F)F)c(Cl)cn2)s1,"viability, T/C",compound 0.1 µM,109% [middle of 4 runs]
same,"viability, T/C",compound 0.316 µM,91.3% [middle of 4 runs]
same,"viability, T/C",compound 1 µM,64.9% [middle of 4 runs]
same,"viability, T/C",compound 10 µM,32% [middle of 4 runs]
same,IC50,curve of compound,2.13 µM [middle of 4 runs]
C=CC(=O)Nc1cc(Nc2nccc(-c3cn(C)c4ccccc34)n2)c(OC)cc1N(C)CCN(C)C + CCn1c(-c2cc(N3CCN(C)CC3)cnc2C(C)OC)c2c3cc(ccc31)-c1csc(n1)CC(NC(=O)C1CC1C)C(=O)N1CCCC(N1)C(=O)OCC(C)(C)C2,IC50,[1],> 1000 nM
same,IC50,[2],> 1000 nM
same,IC50,[3],> 1000 nM
same,IC50,[4],> 1000 nM
same,IC50,[5],> 1000 nM
same,IC50,[6],> 1000 nM
same,"viability, T/C","second compound 0.000949 µM, first compound 0.00316 µM",101%
same,"viability, T/C","second compound 0.000949 µM, first compound 0.01 µM",94.8%
same,"viability, T/C",[7],112%
same,"viability, T/C",[8],109%
same,"viability, T/C",[9],96.8%
same,"viability, T/C",[10],76%
same,"viability, T/C","second compound 0.003 µM, first compound 0.00316 µM",112%
same,"viability, T/C","second compound 0.003 µM, first compound 0.01 µM",95.8%
same,"viability, T/C",[11],94.4%
same,"viability, T/C",[12],98.7%
same,"viability, T/C",[13],95%
same,"viability, T/C",[14],70.3%
same,"viability, T/C","second compound 0.00949 µM, first compound 0.00316 µM",100%
same,"viability, T/C","second compound 0.00949 µM, first compound 0.01 µM",88.5%
same,"viability, T/C",[15],94.8%
same,"viability, T/C",[16],75.8%
same,"viability, T/C",[17],98.6%
same,"viability, T/C",[18],75.7%
same,"viability, T/C","second compound 0.03 µM, first compound 0.00316 µM",100%
same,"viability, T/C","second compound 0.03 µM, first compound 0.01 µM",107%
same,"viability, T/C",[19],107%
same,"viability, T/C",[20],102%
same,"viability, T/C",[21],92.1%
same,"viability, T/C",[22],65.3%
same,"viability, T/C","second compound 0.0949 µM, first compound 0.00316 µM",105%
same,"viability, T/C","second compound 0.0949 µM, first compound 0.01 µM",101%
same,"viability, T/C",[23],97.8%
same,"viability, T/C",[24],105%
same,"viability, T/C",[25],86.7%
same,"viability, T/C",[26],72.8%
same,"viability, T/C","second compound 0.3 µM, first compound 0.00316 µM",98.1%
same,"viability, T/C","second compound 0.3 µM, first compound 0.01 µM",101%
same,"viability, T/C",[27],108%
same,"viability, T/C",[28],102%
same,"viability, T/C",[29],109%
same,"viability, T/C",[30],77.6%
C[C@@H](NC(=O)c1ncnc(N)c1Cl)c1ncc(C(=O)Nc2cc(C(F)(F)F)c(Cl)cn2)s1 + C=CC(=O)N1CCN(c2nc(OCC3CCCN3C)nc3c(F)c(-c4nc(N)cc(C)c4C(F)(F)F)c(Cl)cc23)C(C)C1,IC50,"curve of first compound, second compound 0.00316 µM",954 nM
same,IC50,"curve of first compound, second compound 0.01 µM",1510 nM
same,IC50,"curve of first compound, second compound 0.0316 µM",2040 nM
same,IC50,"curve of first compound, second compound 0.1 µM",2180 nM
same,IC50,"curve of first compound, second compound 0.316 µM",3120 nM
same,IC50,"curve of first compound, second compound 1 µM",3860 nM
same,"viability, T/C","second compound 0.00316 µM, first compound 0.0316 µM",102%
same,"viability, T/C","second compound 0.00316 µM, first compound 0.1 µM",124%
same,"viability, T/C","second compound 0.00316 µM, first compound 0.316 µM",88.9%
same,"viability, T/C","second compound 0.00316 µM, first compound 1 µM",50%
same,"viability, T/C","second compound 0.00316 µM, first compound 3.16 µM",39%
same,"viability, T/C","second compound 0.00316 µM, first compound 10 µM",32.6%
same,"viability, T/C","second compound 0.01 µM, first compound 0.0316 µM",78.6%
same,"viability, T/C","second compound 0.01 µM, first compound 0.1 µM",115%
same,"viability, T/C","second compound 0.01 µM, first compound 0.316 µM",68.8%
same,"viability, T/C","second compound 0.01 µM, first compound 1 µM",59.1%
same,"viability, T/C","second compound 0.01 µM, first compound 3.16 µM",41.3%
same,"viability, T/C","second compound 0.01 µM, first compound 10 µM",31.3%
same,"viability, T/C","second compound 0.0316 µM, first compound 0.0316 µM",108%
same,"viability, T/C","second compound 0.0316 µM, first compound 0.1 µM",113%
same,"viability, T/C","second compound 0.0316 µM, first compound 0.316 µM",65.1%
same,"viability, T/C","second compound 0.0316 µM, first compound 1 µM",62.8%
same,"viability, T/C","second compound 0.0316 µM, first compound 3.16 µM",50.1%
same,"viability, T/C","second compound 0.0316 µM, first compound 10 µM",29.6%
same,"viability, T/C","second compound 0.1 µM, first compound 0.0316 µM",80.6%
same,"viability, T/C","second compound 0.1 µM, first compound 0.1 µM",106%
same,"viability, T/C","second compound 0.1 µM, first compound 0.316 µM",85.3%
same,"viability, T/C","second compound 0.1 µM, first compound 1 µM",60.9%
same,"viability, T/C","second compound 0.1 µM, first compound 3.16 µM",46.8%
same,"viability, T/C","second compound 0.1 µM, first compound 10 µM",41%
same,"viability, T/C","second compound 0.316 µM, first compound 0.0316 µM",60.6%
same,"viability, T/C","second compound 0.316 µM, first compound 0.1 µM",113%
same,"viability, T/C","second compound 0.316 µM, first compound 0.316 µM",85.7%
same,"viability, T/C","second compound 0.316 µM, first compound 1 µM",67.1%
same,"viability, T/C","second compound 0.316 µM, first compound 3.16 µM",52.8%
same,"viability, T/C","second compound 0.316 µM, first compound 10 µM",31.2%
same,"viability, T/C","second compound 1 µM, first compound 0.0316 µM",65.5%
same,"viability, T/C","second compound 1 µM, first compound 0.1 µM",111%
same,"viability, T/C","second compound 1 µM, first compound 0.316 µM",84.2%
same,"viability, T/C","second compound 1 µM, first compound 1 µM",64.1%
same,"viability, T/C","second compound 1 µM, first compound 3.16 µM",58.4%
same,"viability, T/C","second compound 1 µM, first compound 10 µM",30%
